This note sets out measurements from patent publication US20090264648A1, “SYNTHESIS OF PYRAZOLES” (WYETH, priority 2008, published 2009).

A short description of series [1]: Hygroscopicity noted on isolation of the hydrochloride salt. In kind it is physicochemical. Particulars: salt precipitated from DCM with HCl in Et2O. As for the experimental part:
5-(4-acetyl-[1,4]diazepan-1-yl)-pentanoic acid [5-(4-methoxy-phenyl)-1H-pyrazol-3-yl]-amide (1.05 g, 2.54 mmol) was dissolved in a minimum amount of DCM (5 mL) and cooled to 0° C. HCl (2.0 M in Et20, 1.4 mL, 2.89 mmol) was added and the mixture stirred at rt until precipitation of the salt was complete (about 10 min.). The solid was filtered, washed with Et2O several times, and dried in a dessicator to yield 1.09 g of the hydrochloride salt (2.42 mmol, 95% yield). […] MS (ES+): 414.26 (M+H)^+.

Series [2] can be described thus: Hygroscopicity test / Dynamic Vapor Sorption (DVS) of hydrochloride salt crystal forms. In kind it is physicochemical. Particulars: for Water absorbed eventually: 90% RH. As for the experimental part: Evidence of a hydrochloride hydrate was not observed after the hygroscopicity test.
Dynamic Vapor Sorption (DVS) was done at 25-26° C.

“Also recorded” adds a separate entry of the source. Counter-ions that a name gives are not always drawn. Like-named read-outs stand apart in the source and are kept apart here.

In the case of `COc1ccc(-c2cc(NC(=O)CCCCN3CCCN(C(C)=O)CC3)[nH]n2)cc1` (as salt: hydrochloric acid salt) [5-(4-Acetyl-[1,4]diazepan-1-yl)-pentanoic acid [5-(4-methoxy-phenyl)-2H-pyrazol-3-yl]-amide], the melting point (usually the temperature, or range, at which the solid turns liquid) was 185 °C.
On to `COc1ccc(-c2cc(NC(=O)CCCCN3CCCN(C(C)=O)CC3)n[nH]2)cc1.Cl` [Compound I, 5-(4-acetyl-1,4-diazepan-1-yl)-N-(5-(4-methoxyphenyl)-1H-pyrazol-3-yl)pentanamide hydrogen chloride], for which the melting point lay in the range of 132 to 133 °C. The “Hygroscopicity of the sample” value in series [1] is recorded as “extreme hygroscopicity”.
Turning to `COc1ccc(-c2cc(NC(=O)CCCCN3CCCN(C(C)=O)CC3)[nH]n2)cc1` [Crystal Form V, 5-(4-Acetyl-[1,4]diazepan-1-yl)-pentanoic acid [5-(4-methoxy-phenyl)-2H-pyrazol-3-yl]-amide], in series [2], the “Hygroscopicity (in words), Crystal Form Table” value is recorded as “Hygroscopic” and the “Water at RH 50%” value was found to be 7%.
As to `COc1ccc(-c2cc(NC(=O)CCCCN3CCCN(C(C)=O)CC3)[nH]n2)cc1` [Form I, 5-(4-acetyl-1,4-diazepan-1-yl)-N-(5-(4-methoxyphenyl)-1H-pyrazol-3-yl)pentanamide hydrochloric salt Form I], in series [2], the “Behaviour of absorbed water on decreasing RH” value is “loses it without significant hysteresis on decreasing RH; also recorded: loses the water as RH decreases”, the “Evidence of a hydrochloride hydrate after the hygroscopicity test” value is reported as “not observed” and the “Hygroscopicity (in words)” value was “relatively non-hygroscopic”. Further, the Moisture gained entry in series [2] (70-100% RH) was “at least 2%”. In series [2] (DVS at 25-26° C.), the Water absorbed eventually entry is “up to 2%” and the “Relative humidity (RH) at which the form picks up moisture” value is given as “about 50%”. The “Moisture gained when equilibrated” value in series [2] (RH less than or equal to 70%) is “about 0.5%”. Further, the “Hygroscopicity (in words), Crystal Form Table” value in series [2] (listed as Crystal Form I) was “Non-hygroscopic”.
In the case of `COc1ccc(-c2cc(NC(=O)CCCCN3CCCN(C(C)=O)CC3)[nH]n2)cc1` [Form II, 5-(4-acetyl-1,4-diazepan-1-yl)-N-(5-(4-methoxyphenyl)-1H-pyrazol-3-yl)pentanamide hydrochloric salt Form II], the “Hygroscopicity (in words)” value in series [2] is “non-hygroscopic”. Moreover, in series [2] (DVS at 25-26° C.), the Water absorbed eventually result is given as “up to 7%” and the “Relative humidity (RH) at which the form picks up moisture” value is “about 20%”. In addition, the “Water held at low RH” value in series [2] (RH 0%, DVS at 25-26° C.) amounted to 2%. In series [2] (listed as Crystal Form II), the “Water at RH 50%” value was “hygroscopic (5%” and the “Hygroscopicity (in words), Crystal Form Table” value is recorded as “Somewhat”.
Regarding `COc1ccc(-c2cc(NC(=O)CCCCN3CCCN(C(C)=O)CC3)[nH]n2)cc1` [Form III, 5-(4-Acetyl-[1,4]diazepan-1-yl)-pentanoic acid [5-(4-methoxy-phenyl)-2H-pyrazol-3-yl]-amide], the “Hygroscopicity (in words), Crystal Form Table” value in series [2] (listed as Crystal Form III) is “Hygroscopic”.
